According to US8541588B2, “Sulfonamide derivatives” (Pfizer Limited, priority 2009, dated 2013):

molecular target: T1, Nav1.7 (or SCN9A) channel; HEK cells stably transfected with hSCN9A (Homo sapiens, UniProt Q15858); assay: Nav1.7 block, PatchXpress 7000 automated whole-cell voltage clamp, estimated IC50 (EIC50); type: cell-based; settings: PatchXpress platform; hSCN9A HEK cells held at V1/2 of inactivation; estimated IC50
T1 construct: expressed in transfected cells
T1 sequence (Q15858 whole entry): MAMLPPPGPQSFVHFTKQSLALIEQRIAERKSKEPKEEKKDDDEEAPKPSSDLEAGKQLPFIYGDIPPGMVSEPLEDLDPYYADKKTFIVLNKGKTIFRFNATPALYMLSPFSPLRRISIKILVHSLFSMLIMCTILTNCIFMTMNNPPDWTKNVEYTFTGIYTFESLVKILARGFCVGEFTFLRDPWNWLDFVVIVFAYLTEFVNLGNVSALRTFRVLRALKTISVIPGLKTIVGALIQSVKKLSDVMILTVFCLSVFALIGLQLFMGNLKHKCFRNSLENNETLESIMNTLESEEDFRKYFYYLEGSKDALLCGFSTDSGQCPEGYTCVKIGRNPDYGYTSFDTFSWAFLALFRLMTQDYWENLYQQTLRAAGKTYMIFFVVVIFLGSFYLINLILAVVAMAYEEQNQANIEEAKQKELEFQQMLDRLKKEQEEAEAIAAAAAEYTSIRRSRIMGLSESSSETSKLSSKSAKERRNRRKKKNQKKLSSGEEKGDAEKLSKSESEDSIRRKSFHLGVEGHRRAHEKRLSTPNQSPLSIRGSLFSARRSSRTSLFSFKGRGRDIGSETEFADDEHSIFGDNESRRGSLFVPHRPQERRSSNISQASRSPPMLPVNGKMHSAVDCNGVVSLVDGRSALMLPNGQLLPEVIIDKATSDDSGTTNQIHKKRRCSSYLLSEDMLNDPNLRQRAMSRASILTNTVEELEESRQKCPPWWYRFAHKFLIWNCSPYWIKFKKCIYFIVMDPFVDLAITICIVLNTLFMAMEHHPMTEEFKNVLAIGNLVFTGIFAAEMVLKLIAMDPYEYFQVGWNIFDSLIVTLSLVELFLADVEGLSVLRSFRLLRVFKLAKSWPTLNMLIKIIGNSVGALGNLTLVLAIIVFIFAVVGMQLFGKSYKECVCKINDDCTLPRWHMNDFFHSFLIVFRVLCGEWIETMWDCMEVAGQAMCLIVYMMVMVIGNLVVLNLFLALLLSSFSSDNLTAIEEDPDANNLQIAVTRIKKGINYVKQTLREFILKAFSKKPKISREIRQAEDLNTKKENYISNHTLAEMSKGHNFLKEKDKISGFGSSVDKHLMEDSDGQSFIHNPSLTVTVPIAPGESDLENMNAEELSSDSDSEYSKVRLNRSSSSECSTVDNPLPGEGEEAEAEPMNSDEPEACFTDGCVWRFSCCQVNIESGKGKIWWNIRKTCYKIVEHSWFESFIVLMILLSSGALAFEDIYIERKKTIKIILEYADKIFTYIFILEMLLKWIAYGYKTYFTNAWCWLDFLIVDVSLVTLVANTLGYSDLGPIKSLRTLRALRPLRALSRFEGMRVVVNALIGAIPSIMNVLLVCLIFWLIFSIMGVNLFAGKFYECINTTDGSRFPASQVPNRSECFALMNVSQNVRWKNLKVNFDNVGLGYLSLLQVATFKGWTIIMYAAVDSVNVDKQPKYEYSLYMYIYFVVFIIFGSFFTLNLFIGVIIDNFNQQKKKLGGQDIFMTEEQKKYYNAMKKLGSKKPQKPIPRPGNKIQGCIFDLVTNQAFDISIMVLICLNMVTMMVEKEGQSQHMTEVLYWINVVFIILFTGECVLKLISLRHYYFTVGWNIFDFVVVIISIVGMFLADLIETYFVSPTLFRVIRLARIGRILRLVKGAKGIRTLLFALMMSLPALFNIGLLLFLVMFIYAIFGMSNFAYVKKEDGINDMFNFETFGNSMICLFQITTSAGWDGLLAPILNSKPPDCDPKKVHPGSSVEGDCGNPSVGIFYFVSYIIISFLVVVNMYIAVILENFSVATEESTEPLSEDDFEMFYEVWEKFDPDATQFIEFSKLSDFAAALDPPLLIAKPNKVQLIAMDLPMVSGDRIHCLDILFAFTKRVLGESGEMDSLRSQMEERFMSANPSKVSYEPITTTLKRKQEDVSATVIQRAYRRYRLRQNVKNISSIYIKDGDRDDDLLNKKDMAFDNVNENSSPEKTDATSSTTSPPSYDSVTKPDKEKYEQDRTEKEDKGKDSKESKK

Row | Structure (SMILES) | IC50 [nM]
1 | COc1ccc(-c2cccc(C)c2Oc2ccc(S(=O)(=O)Nc3ncns3)cc2C#N)cc1 [Example 42, 3-cyano-4-[(4′-methoxy-3-methylbiphenyl-2-yl)oxy]-N-1,2,4-thiadiazol-5-ylbenzenesulfonamide] | 1730
2 | Cc1cc(Oc2ccc(S(=O)(=O)Nc3ncc(Cl)s3)cc2C#N)n(C2CCCCC2)n1 [Example 143, N-(5-chloro-1,3-thiazol-2-yl)-3-cyano-4-[(1-cyclohexyl-3-methyl-1H-pyrazol-5-yl)oxy]benzenesulfonamide] | >10000
3 | N#Cc1cc(S(=O)(=O)Nc2ncc(Cl)s2)ccc1Oc1cc(C(F)(F)F)nn1-c1ccccc1 [Example 141, N-(5-chloro-1,3-thiazol-2-yl)-3-cyano-4-{[1-phenyl-3-(trifluoromethyl)-1H-pyrazol-5-yl]oxy}benzenesulfonamide] | 1230
4 | COc1ccc(-c2cccc(C)c2Oc2ccc(S(=O)(=O)Nc3ncns3)cc2C#N)cc1F [Example 41, 3-cyano-4-[(3′-fluoro-4′-methoxy-3-methylbiphenyl-2-yl)oxy]-N-1,2,4-thiadiazol-5-ylbenzenesulfonamide] | 10900
5 | Cc1ccc(Oc2ccc(S(=O)(=O)Nc3ncns3)cc2C#N)c(-c2ccccc2)n1 [Example 12, 3-cyano-4-[(6-methyl-2-phenylpyridin-3-yl)oxy]-N-1,2,4-thiadiazol-5-ylbenzenesulfonamide] | 720
6 | N#Cc1cc(S(=O)(=O)Nc2nccs2)ccc1Oc1cc(C2CC2)nn1-c1ccccc1F [Example 193, 3-cyano-4-[5-cyclopropyl-2-(2-fluoro-phenyl)-2H-pyrazol-3-yloxy]-N-thiazol-2-yl-benzenesulfonamide] | 1230
7 | Cn1nccc1-c1cc(Cl)ccc1Oc1ccc(S(=O)(=O)Nc2nccs2)cc1F [Example 219, 4-(4-chloro-2-(1-methyl-1H-pyrazol-5-yl)phenoxy)-3-fluoro-N-(thiazol-2-yl)benzenesulfonamide] | 20
8 | N#Cc1cc(S(=O)(=O)Nc2ncns2)ccc1Oc1ccccc1-c1ccccc1F [Example 50, 3-cyano-4-[(2′-fluorobiphenyl-2-yl)oxy]-N-1,2,4-thiadiazol-5-ylbenzenesulfonamide] | 840
9 | CC(C)Oc1ccc(-c2cc(F)ccc2Oc2ccc(S(=O)(=O)Nc3nccs3)cc2C#N)cc1 [Example 157, 3-cyano-4-[(5-fluoro-4′-isopropoxybiphenyl-2-yl)oxy]-N-1,3-thiazol-2-ylbenzenesulfonamide] | 450
10 | N#Cc1cc(S(=O)(=O)Nc2ncns2)ccc1Oc1nccnc1-c1ccccc1 [Example 20, 3-cyano-4-[(3-phenylpyrazin-2-yl)oxy]-N-1,2,4-thiadiazol-5-ylbenzenesulfonamide] | >10000
11 | N#Cc1cc(S(=O)(=O)Nc2nccs2)ccc1Oc1ccc(F)cc1-c1ccc(F)c(F)c1 [Example 158, 3-cyano-N-1,3-thiazol-2-yl-4-[(3′,4′,5-trifluorobiphenyl-2-yl)oxy]benzenesulfonamide] | 310

same assay, conditions: estimated IC50; hSCN9A HEK cells, PatchXpress platform; Examples 283-814

Row | Structure (SMILES) | IC50 [nM]
12 | Cn1nccc1-c1cc(Cl)ccc1Oc1ncc(S(=O)(=O)Nc2nccs2)cc1Cl [Example 759, 5-chloro-6-[4-chloro-2-(1-methyl-1H-pyrazol-5-yl)phenoxy]-N-1,3-thiazol-2-ylpyridine-3-sulfonamide] | 250
13 | O=S(=O)(Nc1ncns1)c1cc(F)c(Oc2ccc(C(F)(F)F)cc2-c2ccn[nH]2)cc1F [Example 789, 2,5-difluoro-4-[2-(1H-pyrazol-5-yl)-4-(trifluoromethyl)phenoxy]-N-1,2,4-thiadiazol-5-ylbenzenesulfonamide] | 2.1
14 | CCn1nc(C(F)(F)F)cc1-c1ccc(Oc2ccc(S(=O)(=O)Nc3ncc(F)cc3F)cc2C#N)cc1 [Example 311, 3-cyano-N-(3,5-difluoropyridin-2-yl)-4-{4-[1-ethyl-3-(trifluoromethyl)-1H-pyrazol-5-yl]phenoxy}benzenesulfonamide] | 4900
15 | Cn1ncc(F)c1-c1cc(Cl)ccc1Oc1ccc(S(=O)(=O)Nc2nccs2)cc1F [Example 307, 4-[4-Chloro-2-(4-fluoro-1-methyl-1H-pyrazol-5-yl)phenoxy]-3-fluoro-N-1,3-thiazol-2-ylbenzenesulfonamide] | 810
16 | Cn1ccnc1-c1cc(Cl)ccc1Oc1ccc(S(=O)(=O)Nc2nccs2)cc1C#N [Example 651, 4-[4-chloro-2-(1-methyl-1H-imidazol-2-yl)phenoxy]-3-cyano-N-1,3-thiazol-2-ylbenzenesulfonamide] | 1000
17 | N#Cc1cc(S(=O)(=O)Nc2nccs2)ccc1Oc1cnn(-c2ccc(Cl)cc2)c1 [Example 332, 4-{[1-(4-chlorophenyl)-1H-pyrazol-4-yl]oxy}-3-cyano-N-1,3-thiazol-2-ylbenzenesulfonamide] | >1000
18 | N#Cc1cc(S(=O)(=O)Nc2cscn2)ccc1Oc1ccc(Cl)cc1-c1cn[nH]c1 [Example 767, 4-[4-chloro-2-(1H-pyrazol-4-yl)phenoxy]-3-cyano-N-1,3-thiazol-4-ylbenzenesulfonamide] | 240
19 | O=S(=O)(Nc1nccs1)c1ccc(Oc2ccc(Cl)cc2-c2ccn[nH]2)c(F)c1 [Example 308, 4-[4-Chloro-2-(1H-pyrazol-5-yl)phenoxy]-3-fluoro-N-1,3-thiazol-2-ylbenzenesulfonamide] | 980
20 | N#Cc1cc(S(=O)(=O)Nc2nccs2)ccc1Oc1ccc(-c2cc(C(F)(F)F)nn2CCCF)cc1F [Example 551, 3-cyano-4-{2-fluoro-4-[1-(3-fluoropropyl)-3-(trifluoromethyl)-1H-pyrazol-5-yl]phenoxy}-N-1,3-thiazol-2-ylbenzenesulfonamide] | 71
21 | Cc1nc(-c2ccccc2Oc2ccc(S(=O)(=O)Nc3ccc(F)cn3)cc2C#N)cs1 [Example 572, 3-cyano-N-(5-fluoropyridin-2-yl)-4-[2-(2-methyl-1,3-thiazol-4-yl)phenoxy]benzenesulfonamide] | >30000
22 | Cc1cncnc1NS(=O)(=O)c1ccc(Oc2ccccc2-c2ccccc2)c(C#N)c1 [Example 428, 4-(biphenyl-2-yloxy)-3-cyano-N-(5-methylpyrimidin-4-yl)benzenesulfonamide] | >10000
23 | N#Cc1cc(S(=O)(=O)Nc2nccs2)ccc1Oc1ccc(Cl)cc1-c1ccn[nH]1 [Example 709, 4-[4-chloro-2-(1H-pyrazol-5-yl)phenoxy]-3-cyano-N-1,3-thiazol-2-ylbenzenesulfonamide] | 14
24 | O=S(=O)(Nc1ncns1)c1cc(Cl)c(Oc2ccc(F)cc2-c2ccn[nH]2)cc1F [Example 620, 5-chloro-2-fluoro-4-[4-fluoro-2-(1H-pyrazol-5-yl)phenoxy]-N-1,2,4-thiadiazol-5-ylbenzenesulfonamide] | 4.8
25 | Cn1nccc1-c1cc(Cl)ccc1Oc1ccc(S(=O)(=O)Nc2ncc(C(F)(F)F)cn2)cc1C#N [Example 462, 4-[4-chloro-2-(1-methyl-1H-pyrazol-5-yl)phenoxy]-3-cyano-N-[5-(trifluoromethyl)pyrimidin-2-yl]benzenesulfonamide] | 51000

same assay, conditions: estimated IC50; hSCN9A HEK cells, PatchXpress platform; Examples 815-1040

Row | Structure (SMILES) | IC50 [nM]
26 | N#Cc1ccc(Oc2cc(F)c(S(=O)(=O)Nc3ncns3)cc2Cl)c(-c2cn[nH]c2)c1 [Example 850, 5-chloro-4-[4-cyano-2-(1H-pyrazol-4-yl)phenoxy]-2-fluoro-N-1,2,4-thiadiazol-5-ylbenzenesulfonamide] | 3.2
27 | O=S(=O)(Nc1ncns1)c1ccc(Oc2ccc(C(F)(F)F)cc2-c2ccnnc2)c(F)c1 [Example 929, 3-fluoro-4-[2-pyridazin-4-yl-4-(trifluoromethyl)phenoxy]-N-1,2,4-thiadiazol-5-ylbenzenesulfonamide] | 100
28 | O=S(=O)(Nc1ncns1)c1cc(F)c(Oc2ccc(Cl)cc2-c2cnco2)cc1F [Example 970, 4-[4-chloro-2-(1,3-oxazol-5-yl)phenoxy]-2,5-difluoro-N-1,2,4-thiadiazol-5-ylbenzenesulfonamide] | 17
29 | CC(C)N1CC(n2nccc2-c2cc(Cl)ccc2Oc2ccc(S(=O)(=O)Nc3cscn3)cc2C#N)C1 [Example 861, 4-{4-chloro-2-[1-(1-isopropylazetidin-3-yl)-1H-pyrazol-5-yl]phenoxy}-3-cyano-N-1,3-thiazol-4-ylbenzenesulfonamide] | 14
30 | Cn1cc(-c2cc(Cl)ccc2Oc2ccc(S(=O)(=O)Nc3ncns3)cc2C#N)ccc1=O [Example 908, 4-[4-chloro-2-(1-methyl-6-oxo-1,6-dihydropyridin-3-yl)phenoxy]-3-cyano-N-1,2,4-thiadiazol-5-ylbenzenesulfonamide] | 780
31 | O=S(=O)(Nc1ccncn1)c1ccc(Oc2ccc(Cl)cc2-c2ccnnc2)c(Cl)c1 [Example 847, 3-chloro-4-(4-chloro-2-pyridazin-4-ylphenoxy)-N-pyrimidin-4-ylbenzenesulfonamide] | 130
32 | O=S(=O)(Nc1ncns1)c1cc(Cl)c(Oc2ccc(Cl)cc2-c2ccnnc2)cc1F [Example 910, 5-chloro-4-(4-chloro-2-pyridazin-4-ylphenoxy)-2-fluoro-N-1,2,4-thiadiazol-5-ylbenzenesulfonamide] | 12
33 | N#Cc1cc(S(=O)(=O)Nc2nncs2)ccc1Oc1ccc(OC(F)(F)F)cc1-c1ccnnc1 [Example 933, 3-cyano-4-[2-pyridazin-4-yl-4-(trifluoromethoxy)phenoxy]-N-1,3,4-thiadiazol-2-ylbenzenesulfonamide] | >100
34 | O=S(=O)(Nc1ncns1)c1ccc(Oc2ccc(OC(F)(F)F)cc2-c2ccn[nH]2)c(F)c1 [Example 829, 3-fluoro-4-[2-(1H-pyrazol-5-yl)-4-(trifluoromethoxy)phenoxy]-N-1,2,4-thiadiazol-5-ylbenzenesulfonamide] | 34
35 | O=S(=O)(Nc1nncs1)c1cc(F)c(Oc2ccc(Cl)cc2-c2cn[nH]c2)cc1F [Example 821, 4-[4-chloro-2-(1H-pyrazol-4-yl)phenoxy]-2,5-difluoro-N-1,3,4-thiadiazol-2-ylbenzenesulfonamide] | 100
36 | N#Cc1cc(S(=O)(=O)Nc2cscn2)ccc1Oc1ccc(C(F)(F)F)cc1-c1ccnn1C1CNC1 [Example 969, 4-[2-(1-azetidin-3-yl-1H-pyrazol-5-yl)-4-(trifluoromethyl)phenoxy]-3-cyano-N-1,3-thiazol-4-ylbenzenesulfonamide] | 4.1
